Key:
Type in all cases: cell-based
[1] = test system: Bacillus cereus; assay: Challenge test in BHI broth, single strain; conditions: for Bacterial growth (optical density 550 nm after 12 days): pH 5.6, 12° C.
Protocol: (§1) Commercial sodium acetate (Sigma) and the freeze-dried fermentate of the invention (pH 5.0) were tested in Brain Heart Infusion broth (BHI), using single and cocktail tests. BHI was added with:
(§2) (a) commercial sodium acetate at final concentrations of 0.25 and 0.5%;
(§3) (b) freeze dried fermentate (pH 5.0) at final concentrations of sodium acetate of 0.25 to 0.5%; and,
(§4) (c) a control sample consisted of BHI broth without sodium acetate.
(§5) For first samples, the pH of BHI broth with or without sodium acetate was adjusted to 5.6 with HCl (10%) and the samples filter-sterilized ([…], Millipore). For comparative samples, the pH was controlled at 7.0 and the sample filtered-sterilized.
(§6) The freeze-dried product was evaluated for its inhibitory actions against Gram-negative Gram-positive bacteria. Twenty-mL samples were inoculated with 10^4-10^5 cfu/mL of L. monocytogenes, B. cereus, E. coli, or S. typhimurium alone and combined. The samples were incubated at two conditions: at 30° C. for 24 h, and at 12° C. for 2 weeks.
(§7) The control samples consisted of samples with and without commercial sodium acetate.

[2] = test system: Escherichia coli; assay: Challenge test in BHI broth, single strain; conditions: for Bacterial growth (optical density 550 nm after 12 days): pH 5.6, 12° C.
Protocol: as §1, §2, §3, §4, §5, §6, §7

[3] = test system: Listeria monocytogenes; assay: Challenge test in BHI broth, single strain; conditions: for Bacterial growth (optical density 550 nm after 12 days): pH 5.6, 12° C.
Protocol: as §1, §2, §3, §4, §5, §6, §7

[4] = test system: Salmonella typhimurium; assay: Challenge test in BHI broth, single strain; conditions: for Bacterial growth (optical density 550 nm after 12 days): pH 5.6, 12° C.
Protocol: as §1, §2, §3, §4, §5, §6, §7

[5] = test system: Cocktail (L. monocytogenes, Bacillus cereus, Escherichia coli, S. typhimurium); assay: Challenge test in BHI broth, bacterial cocktail; conditions: for Bacterial growth (optical density 550 nm after 12 days): pH 5.6, 12° C.
Protocol: as §1, §2, §3, §4, §5, §6, §7
An additional challenge test was carried out on the bacterial cocktail strains of Listeria monocytogenes, Escheriachia coli, Bacillus cereus, and Salmonella typhimurium.

[6] = test system: challenge bacteria (L. monocytogenes, B. cereus, E. coli, S. typhimurium); assay: Challenge test in BHI broth, challenge bacteria overall; conditions: neutral pH (6.5 to 7.0) and 30° C.
Protocol: as §1, §2, §3, §4, §5, §6, §7

[7] = test system: Gram-negative bacterial cocktail (3 E. Coli strains and 3 Salmonella strains); assay: Challenge test in mashed potato, Gram-negative cocktail; conditions: 12° C.; for Microbial growth: mashed potato pH 5.6, 0.5%
Protocol: (§8) Five hundred grams of mashed potato were added to 500 g of distilled water and mixed thoroughly. The pH of the mixture was adjusted to pH 5.6 with 1N HCl. Three separate samples of 300 g of mashed potato were added with respectively, 0.5 % commercial sodium acetate, 0.5% of freeze dried fermentate and a control with no acetate. The three mashed potato samples (respectively with commercial acetate, fermentate and control) were heated at 70° C. for 5 min in a microwave and then dispatched aseptically in separate aliquots of 30 g each. The pH of all samples was checked before inoculation. Triplicate samples of each the three mashed potato aliquots were inoculated with 10^3-10^4 colony forming units per gram (cfu/g) of Gram-negative bacterial cocktail (3 E. Coli strains and 3 Salmonella strains), or L. monocytogenes cocktail and incubated at 12° C. for 2 weeks. Periodically, samples were withdrawn and bacterial counts were enumerated using BHI agar and incubated at 30° C. for 48 hours.
To confirm the effectiveness of the two sources of sodium acetate against Gram-negative bacteria, a cocktail of Gram-negative bacteria was used in a challenge experiment in mashed potato.

[8] = test system: Listeria monocytogenes strains; assay: Challenge test in mashed potato, L. monocytogenes cocktail; conditions: for Microbial growth: mashed potato pH 5.6, 0.5%, 12° C.
Protocol: as §8
To confirm the effectiveness of the two sources of sodium acetate against Listeria monocytogenes strains, another challenge experiment in mashed potato was performed.

[9] = 0.25% sodium acetate, pH 5.6, 30° C.
[10] = 0.25% sodium acetate, pH 7.0, 30° C.
[11] = 0.5% sodium acetate, pH 5.6, 30° C.
[12] = 0.5% sodium acetate, pH 7.0, 30° C.

Compound: CC(=O)[O-].[Na+] [C, sodium acetate]
- Bacterial growth (optical density 550 nm after 12 days) ([1]; 0.25% sodium acetate): 0.017
- Bacterial growth (optical density 550 nm after 24 hrs) [1, 9]: 0.068
- Bacterial growth (optical density 550 nm after 24 hrs) [1, 10]: 0.325
- Bacterial growth (optical density 550 nm after 12 days) ([1]; 0.5% sodium acetate): 0.017
- Bacterial growth (optical density 550 nm after 24 hrs) [1, 11]: 0.042
- Bacterial growth (optical density 550 nm after 24 hrs) [1, 12]: 0.315
- Inhibitory effect on growth (in words) ([1]; pH 5.6 and below): exhibited inhibitory effects
- Bacterial growth (optical density 550 nm after 12 days) ([2]; 0.25% sodium acetate): 0.017
- Bacterial growth (optical density 550 nm after 24 hrs) [2, 9]: 0.231
- Bacterial growth (optical density 550 nm after 24 hrs) [2, 10]: 0.589
- Bacterial growth (optical density 550 nm after 12 days) ([2]; 0.5% sodium acetate): 0.013
- Bacterial growth (optical density 550 nm after 24 hrs) [2, 11]: 0.099
- Bacterial growth (optical density 550 nm after 24 hrs) [2, 12]: 0.587
- Inhibitory effect on growth (in words) ([2]; pH 5.6 and below): exhibited inhibitory effects
- Bacterial growth (optical density 550 nm after 12 days) ([3]; 0.25% sodium acetate): 0.212
- Bacterial growth (optical density 550 nm after 24 hrs) [3, 9]: 0.216
- Bacterial growth (optical density 550 nm after 24 hrs) [3, 10]: 0.429
- Bacterial growth (optical density 550 nm after 12 days) ([3]; 0.5% sodium acetate): 0.220
- Bacterial growth (optical density 550 nm after 24 hrs) [3, 11]: 0.063
- Bacterial growth (optical density 550 nm after 24 hrs) [3, 12]: 0.399
- Bacterial growth (optical density 550 nm after 12 days) ([4]; 0.25% sodium acetate): 0.010
- Bacterial growth (optical density 550 nm after 24 hrs) [4, 9]: 0.089
- Bacterial growth (optical density 550 nm after 24 hrs) [4, 10]: 0.645
- Bacterial growth (optical density 550 nm after 12 days) ([4]; 0.5% sodium acetate): 0.013
- Bacterial growth (optical density 550 nm after 24 hrs) [4, 11]: 0.020
- Bacterial growth (optical density 550 nm after 24 hrs) [4, 12]: 0.600
- Inhibitory effect on growth (in words) ([4]; pH 5.6 and below): exhibited inhibitory effects
- Bacterial growth (optical density 550 nm after 12 days) ([5]; 0.25% sodium acetate): 0.287
- Bacterial growth (optical density 550 nm after 12 days) ([5]; 0.5% sodium acetate): 0.266
- Inhibition of the bacterial cocktail (in words) ([5]; pH 5.6 and at 2° C. (so in the source), both concentrations): failed to inhibit
- Inhibition of the challenge bacteria (in words) [6]: neither commercial sodium acetate nor the fermentate inhibit
- Microbial growth ([7]; day 0): 4.6 Log10 cfu/g
- Microbial growth ([7]; day 2): 4.6 Log10 cfu/g
- Microbial growth ([7]; day 5): 4.5 Log10 cfu/g
- Microbial growth ([7]; day 7): 4.5 Log10 cfu/g
- Microbial growth ([7]; day 9): 4.1 Log10 cfu/g
- Inhibitory effectiveness on growth of Gram-negative cocktail (in words) ([7]; mashed potato): inhibitory effectiveness
- Microbial growth ([8]; day 0): 3.1 Log10 cfu/g
- Microbial growth ([8]; day 2): 4.4 Log10 cfu/g
- Microbial growth ([8]; day 5): 4.3 Log10 cfu/g
- Microbial growth ([8]; day 7): 4.9 Log10 cfu/g
- Microbial growth ([8]; day 14): 7.5 Log10 cfu/g
- Delay of growth of Listeria monocytogenes (in words) ([8]; mashed potato, 14 days of incubation at 12° C.): unable to delay the growth of this organism for more than a week
